# Key:
# Li-Pilo rats [1] = experiment: Elevated plus-maze test in Li-Pilo rats; type: in vivo, rat; settings: 200 mg/kg, given orally for 6/7 weeks before the test
# Method: (§1) From this point, the rats selected received vehicle during the first week of dosing then the test substance, CBD (SYN) or CBD (BOT 0.08%), at 200 mg/kg in drinking water until the end of the study, i.e. 7 weeks (1 week vehicle+6 weeks test substance). Dosing continued throughout the behavioural testing period (1 week). The drink was changed twice a week, until the end of the experiment.
# The behavioural tests started 6 weeks after the beginning of dosing, i.e. between weeks 11 and 13. The rats were tested in sub-groups, depending on the beginning of the treatment. The behavioural tests included the elevated plus maze, social investigation, social recognition and accelerating rotarod tests (tests done in this order on the week of assessment).
# The method, which detects anxiolytic activity, follows that described by Handley and Mithani (Naunyn. Schmied. Arch. Pharmacol., 327, 1-5, 1984). Rodents avoid open spaces (the open arms of an elevated plus-maze). Anxiolytics increase exploratory activity in the open arms, as indicated by increased time spent on the open arms and/or by increased % open-arm entries.
# The maze consisted of 4 arms of equal length and width (50×10 cm) arranged in the form of a plus sign (+). Two opposite arms were enclosed by 40 cm high walls (closed arms). The 2 other arms had no walls (open arms). The maze was raised approximately 65 cm above the floor. A rat was placed in the center of the plus-maze and was left to explore for 5 minutes. The number of entries into the open and closed arms and the time spent on the open arms were recorded. The % of open arm entries (open arm entries/total arm entries×100) was calculated.
# A test of normality (D'Agostino and Pearson) was done to check the distribution of the data before applying the appropriate statistical analysis. Data on the total number of entries and on the percent of entries in open arms was analyzed using One-Way analysis of variance (ANOVA) followed by Sidak's multiple comparisons test. Data on the time spent in open arms was analysed using Kruskal-Wallis Test followed by Dunn's multiple comparisons test.
# [2] = test system: rat model of temporal lobe epilepsy, Reduced Intensity Status Epilepticus (RISE); experiment: Post-Seizure Behavioural Battery (PSBB) in the Reduced Intensity Status Epilepticus (RISE) model; type: in vivo
# Method: Reduced Intensity Status Epilepticus (RISE) model
# The method, which detects anti-epileptic activity follows that described by Modebaze et al., 2016 (PLoS one, 11(2):e0147265).
# On Day 1, the rats were treated with lithium chloride (127 mg/kg, 5 mL/kg, s.c.). Approximately 24 hours after, on Day 2, a-methyl scopolamine (1 mg/kg, 1 mL/kg, s.c.) was administered to reduce peripheral manifestations of muscarinic cholinergic receptor activation. Thirty minutes later, a dose of pilocarpine chloride was injected (range from 25 mg/kg×1 to 40 mg/kg×5, i.e. 25-200 mg/kg, 1 mL/kg, s.c., reference P6503, Sigma). […]
# Status epilepticus was determined when seizure severity was equal to a score of 5 on a Racine's scale. […]
# Behavioural signs of status epilepticus were ceased within 30 minutes and animals were then closely monitored during subsequent recovery. They were visually monitored until ambulatory and able to consume water and moistened, powdered food. […]
# The lithium-pilocarpine rats were assessed in the two following behavioural tests twice weekly over the next 10 weeks, starting two weeks after status epilepticus induction (on Day 15). […]
# The PSBB score was analysed pre and post-treatment to assess firstly if the animals were evenly distributed in the 3 different treatment groups based on their epileptic phenotype and if it was affected differently by synthetic and botanical CBD. […]
# Li-Pilo rats [3] = experiment: Social investigation test in Li-Pilo rats; type: in vivo, rat; settings: 200 mg/kg, given orally for 6/7 weeks before the test
# Method: as §1
# The behavioural tests started 6 weeks after the beginning of dosing, i.e. between weeks 11 and 13. The rats were tested in sub-groups, depending on the beginning of the treatment. […]
# Two unfamiliar rats (housed in 2 separate cages) from the same group were placed in an unfamiliar testing arena (80×80×40 cm) under dim light (<100 Lux). The behavior of the 2 rats was recorded for 10 minutes.
# The time each rat spent investigating (sniffing, grooming, licking, closely following) the other rat was measured manually for 10 minutes. Locomotor activity (line crossing) was also recorded.
# A test of normality (D'Agostino and Pearson) was done to check the distribution of the data before applying the appropriate statistical analysis. Data on the investigation duration was analyzed using Kruskal-Wallis Test followed by Dunn's multiple comparisons test. Data on the number of crossings was analysed using One-Way ANOVA followed by Sidak's multiple comparisons test.
# [4] = General status / body weight of Li-Pilo rats during treatment; type: in vivo, rat
# Method: as §1
# The rats were weighed twice a week, at the same time that the vehicle/formulations were changed in the bottles. The glass bottles were also weighed twice a week for evaluating the volume drunk by the rat and adjusting the concentration during the experiment.
compound,measurement,setting,value
"C=C(C)[C@@H]1CCC(C)=C[C@H]1c1c(O)cc(CCCCC)cc1O [Synthetic CBD, cannabidiol]","percent of entries in open arms, as compared with control Li-Pilo rats",Li-Pilo rats [1],did not clearly affect
same,"time spent in open arms, as compared with control Li-Pilo rats",Li-Pilo rats [1],did not clearly affect
same,"total number of entries, as compared with control Li-Pilo rats",Li-Pilo rats [1]; 5 minutes,did not clearly affect
same,"post-treatment PSBB score, as compared with control Li-Pilo rats (epileptic vehicle)","[2]; 200 mg/kg, given orally for 6/7 weeks before the test",did not significantly affect
same,post-treatment PSBB score (conclusion),"[2]; epileptic animals, comparator not stated",failed to lower the score
same,"duration of investigation, as compared with control Li-Pilo rats",Li-Pilo rats [3],did not significantly change
same,"number of line crossings, as compared with control Li-Pilo rats",Li-Pilo rats [3],did not significantly change
same,rats that lost weight on the 7 weeks of test,[4]; Phase 1,Three other rats lost weight
same,deaths in the treated group,"[4]; Phase 1, nine rats in group",Two rats died
same,rats that lost weight on the 7 weeks of test,[4]; Phase 2,Four other rats lost weight
same,rats lost before the end of the experiment,"[4]; Phase 2, thirteen rats in group",One rat was sacrificed for ethical reasons
